In ChEMBL document CHEMBL3784925, “Discovery of a New Inhibitor of Myeloid Differentiation 2 from Cinnamamide Derivatives with Anti-Inflammatory Activity in Sepsis and Acute Lung Injury” (J Med Chem, 2016):
Activity calls are given as the source filed them. The rule behind the calls is not given here.

Experiments:
[1] = Cytotoxicity against C57BL/6 mouse primary peritoneal macrophages assessed as reduction in cell viability at 10 uM after 24 hrs by MTT assay; assay type: cell-based; conditions: peritoneal macrophage cell
[2] = molecular target: Mitogen-activated protein kinase 14 (Homo sapiens) (UniProt Q16539); test: Inhibition of recombinant human N-terminal GST-tagged p38-alpha (9 to 352 residues) expressed in Escherichia coli using modified erktide as substrate at 0.05 to 50 uM after 1 hr by microfluidic assay
Mus musculus [3] = test: Antiinflammatory activity in acute lung injury C57BL/6 mouse model assessed as inhibition of LPS-induced interstitial edema at 20 mg/kg, po treated 15 mins before LPS challenge measured after 6 hrs by hematoxylin and eosin staining based light microscopic analysis; assay type: functional, organism-based
[4] = Cmax in Sprague-Dawley rat plasma at 20 mg/kg, po after 12 hrs by UPLC analysis; assay type: ADME, organism-based; design: dose 20 mg/kg, route oral
[5] = Cmax in Sprague-Dawley rat plasma at 10 mg/kg, iv measured immediately post treatment by UPLC analysis; assay type: ADME, organism-based; design: dose 10 mg/kg, route intravenous
[6] = molecular target: Toll-like receptor 4 (Homo sapiens) (UniProt O00206); test: Binding affinity to recombinant human TLR4 at 6.25 to 100 uM by surface plasmon resonance analysis
Mus musculus [7] = test: Antiinflammatory activity in acute lung injury C57BL/6 mouse model assessed as inhibition of LPS-induced MPO activity in lung tissues at 20 mg/kg, po treated 15 mins before LPS challenge measured after 6 hrs; assay type: functional, organism-based
Mus musculus [8] = test: Antiinflammatory activity in acute lung injury C57BL/6 mouse model assessed as inhibition of LPS-induced thickening of alveolar wall at 20 mg/kg, po treated 15 mins before LPS challenge measured after 6 hrs by hematoxylin and eosin staining based light microscopic analysis; assay type: functional, organism-based
Mus musculus [9] = test: (§1) Antiinflammatory activity in acute lung injury C57BL/6 mouse model assessed as inhibition of LPS-induced IL-1beta mRNA expression in lung tissues at 20 mg/kg, po treated 15 mins before LPS challenge measured after 6 hrs; assay type: functional, organism-based
Mus musculus [10] = test: Antiinflammatory activity in acute lung injury C57BL/6 mouse model assessed as inhibition of LPS-induced TNF-alpha mRNA expression in lung tissues at 20 mg/kg, po treated 15 mins before LPS challenge measured after 6 hrs; assay type: functional, organism-based
[11] = molecular target: Mitogen-activated protein kinase 3 (Homo sapiens) (UniProt P27361); test: Inhibition of full length recombinant human N-terminal GST-tagged ERK1 (1 to 379 residues) expressed in Escherichia coli using modified erktide as substrate at 0.05 to 50 uM after 1 hr by microfluidic assay
[12] = molecular target: T1, Inhibitor of nuclear factor kappa-B kinase subunit beta (Homo sapiens) (UniProt O14920); test: Inhibition of recombinant human N-terminal His-tagged IKKbeta (1 to 662 residues) expressed in baculovirus expression system using modified IkBalpha-derived peptide as substrate at 0.05 to 50 uM after 1 hr by microfluidic assay
T1 sequence (whole entry): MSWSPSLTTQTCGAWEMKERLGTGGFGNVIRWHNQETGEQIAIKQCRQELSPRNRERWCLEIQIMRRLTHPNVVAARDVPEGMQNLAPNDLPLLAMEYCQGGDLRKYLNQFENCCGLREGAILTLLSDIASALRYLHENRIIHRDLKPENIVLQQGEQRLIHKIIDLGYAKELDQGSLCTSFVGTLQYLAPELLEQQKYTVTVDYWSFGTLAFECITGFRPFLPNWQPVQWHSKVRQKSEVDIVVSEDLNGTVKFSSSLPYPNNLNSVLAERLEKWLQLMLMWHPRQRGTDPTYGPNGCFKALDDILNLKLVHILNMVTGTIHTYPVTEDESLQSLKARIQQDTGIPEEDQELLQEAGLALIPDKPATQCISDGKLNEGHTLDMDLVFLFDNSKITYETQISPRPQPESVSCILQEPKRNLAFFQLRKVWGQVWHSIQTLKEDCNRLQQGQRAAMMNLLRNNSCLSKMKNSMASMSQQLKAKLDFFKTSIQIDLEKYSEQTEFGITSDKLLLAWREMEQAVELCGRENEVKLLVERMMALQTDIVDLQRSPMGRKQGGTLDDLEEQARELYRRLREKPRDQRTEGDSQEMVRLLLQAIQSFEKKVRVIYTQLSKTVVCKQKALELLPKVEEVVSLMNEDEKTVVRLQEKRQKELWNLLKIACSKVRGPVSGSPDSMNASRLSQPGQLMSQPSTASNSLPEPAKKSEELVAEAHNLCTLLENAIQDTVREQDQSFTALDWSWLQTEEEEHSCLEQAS

Mus musculus [13] = test: Antiinflammatory activity in acute lung injury C57BL/6 mouse model assessed as inhibition of LPS-induced increase in protein concentration in bronchoalveolar lavage fluid at 20 mg/kg, po treated 15 mins before LPS challenge measured after 6 hrs; assay type: functional, organism-based
[14] = Cmax in Sprague-Dawley rat plasma at 20 mg/kg, po measured immediately post treatment by UPLC analysis; assay type: ADME, organism-based; design: dose 20 mg/kg, route oral
Mus musculus [15] = test: Antiinflammatory activity in acute lung injury C57BL/6 mouse model assessed as inhibition of LPS-induced IL-6 mRNA expression in lung tissues at 20 mg/kg, po treated 15 mins before LPS challenge measured after 6 hrs; assay type: functional, organism-based
[16] = Cmax in Sprague-Dawley rat plasma at 10 mg/kg, iv after 24 hrs by UPLC analysis; assay type: ADME, organism-based; design: dose 10 mg/kg, route intravenous
[17] = molecular target: Toll-like receptor 2 (Mus musculus) (UniProt Q9QUN7); test: Inhibition of TLR2 in mouse RAW264.7 cells assessed as inhibition of Pam3CK-induced IL-6 level at 5 to 10 uM preincubated for 2 hrs followed by Pam3CK addition measured after 12 hrs by ELISA; assay type: cell-based
[18] = molecular target: Mitogen-activated protein kinase 9 (Homo sapiens) (UniProt P45984); test: Inhibition of recombinant human N-terminal GST-tagged JNK2 catalytic domain (1 to 364 residues) expressed in Escherichia coli using modified erktide as substrate at 0.05 to 50 uM after 1 hr by microfluidic assay
Mus musculus [19] = test: Antiinflammatory activity in acute lung injury C57BL/6 mouse model assessed as inhibition of LPS-induced increase in neutrophil level in bronchoalveolar lavage fluid at 20 mg/kg, po treated 15 mins before LPS challenge measured after 6 hrs by wright-gimesa staining based assay; assay type: functional, organism-based
Mus musculus [20] = test: Antiinflammatory activity in acute lung injury C57BL/6 mouse model assessed as inhibition of LPS-induced lung edema at 20 mg/kg, po treated 15 mins before LPS challenge measured after 6 hrs; assay type: functional, organism-based
Mus musculus [21] = test: Antiinflammatory activity in acute lung injury C57BL/6 mouse model assessed as inhibition of LPS-induced pulmonary congestion at 20 mg/kg, po treated 15 mins before LPS challenge measured after 6 hrs by hematoxylin and eosin staining based light microscopic analysis; assay type: functional, organism-based
Mus musculus [22] = test: as §1, with “macrophage infilteration by measuring reduction in CD68” for “IL-1beta mRNA”, “hrs by DAB staining based immunohistochemical analysis” for “hrs”; assay type: functional, organism-based
Mus musculus [23] = test: In vivo inhibition of LPS-induced MD2/TLR4 complex formation in lung tissues of acute lung injury C57BL/6 mouse model at 20 mg/kg, po treated 15 mins before LPS challenge measured after 6 hrs by immunoprecipitation assay; assay type: functional, organism-based
Mus musculus [24] = test: Antiinflammatory activity in LPS-induced septic shock C57BL/6 mouse model assessed as mouse survival at 10 mg/kg, iv treated 15 mins before LPS challenge measured for 7 days relative to control; assay type: functional; conditions: C57BL/6, iv
[25] = molecular target: Toll-like receptor 2 (Mus musculus) (UniProt Q9QUN7); test: Inhibition of TLR2 in mouse RAW264.7 cells assessed as inhibition of Pam3CK-induced TNF-alpha level at 5 to 10 uM preincubated for 2 hrs followed by Pam3CK addition measured after 12 hrs by ELISA; assay type: cell-based
[26] = molecular target: Mitogen-activated protein kinase 11 (Homo sapiens) (UniProt Q15759); test: Inhibition of full length recombinant human N-terminal GST-tagged p38-beta (1 to 364 residues) expressed in Escherichia coli using modified erktide as substrate at 0.05 to 50 uM after 1 hr by microfluidic assay
Mus musculus [27] = test: Antiinflammatory activity in acute lung injury C57BL/6 mouse model assessed as inhibition of LPS-induced infiltration of inflammatory cells at 20 mg/kg, po treated 15 mins before LPS challenge measured after 6 hrs by hematoxylin and eosin staining based light microscopic analysis; assay type: functional, organism-based
Mus musculus [28] = test: Antiinflammatory activity in acute lung injury C57BL/6 mouse model assessed as inhibition of LPS-induced increase in total cells in bronchoalveolar lavage fluid at 20 mg/kg, po treated 15 mins before LPS challenge measured after 6 hrs by cell counting method; assay type: functional, organism-based
[29] = molecular target: T2, Lymphocyte antigen 96 (Homo sapiens) (UniProt Q9Y6Y9); test: Binding affinity to recombinant human MD2 (17 to 160 residues) expressed in Escherichia coli BL21(DE3) cells at 6.25 to 100 uM by surface plasmon resonance analysis
T2 sequence (whole entry): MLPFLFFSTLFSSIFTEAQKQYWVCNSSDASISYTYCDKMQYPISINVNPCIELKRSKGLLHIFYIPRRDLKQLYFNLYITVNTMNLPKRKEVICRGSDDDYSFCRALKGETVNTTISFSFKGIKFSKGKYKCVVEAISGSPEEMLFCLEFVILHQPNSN

Toll-like receptor 2 (Mus musculus), sequence (Q9QUN7 whole entry, the tested form may be a part): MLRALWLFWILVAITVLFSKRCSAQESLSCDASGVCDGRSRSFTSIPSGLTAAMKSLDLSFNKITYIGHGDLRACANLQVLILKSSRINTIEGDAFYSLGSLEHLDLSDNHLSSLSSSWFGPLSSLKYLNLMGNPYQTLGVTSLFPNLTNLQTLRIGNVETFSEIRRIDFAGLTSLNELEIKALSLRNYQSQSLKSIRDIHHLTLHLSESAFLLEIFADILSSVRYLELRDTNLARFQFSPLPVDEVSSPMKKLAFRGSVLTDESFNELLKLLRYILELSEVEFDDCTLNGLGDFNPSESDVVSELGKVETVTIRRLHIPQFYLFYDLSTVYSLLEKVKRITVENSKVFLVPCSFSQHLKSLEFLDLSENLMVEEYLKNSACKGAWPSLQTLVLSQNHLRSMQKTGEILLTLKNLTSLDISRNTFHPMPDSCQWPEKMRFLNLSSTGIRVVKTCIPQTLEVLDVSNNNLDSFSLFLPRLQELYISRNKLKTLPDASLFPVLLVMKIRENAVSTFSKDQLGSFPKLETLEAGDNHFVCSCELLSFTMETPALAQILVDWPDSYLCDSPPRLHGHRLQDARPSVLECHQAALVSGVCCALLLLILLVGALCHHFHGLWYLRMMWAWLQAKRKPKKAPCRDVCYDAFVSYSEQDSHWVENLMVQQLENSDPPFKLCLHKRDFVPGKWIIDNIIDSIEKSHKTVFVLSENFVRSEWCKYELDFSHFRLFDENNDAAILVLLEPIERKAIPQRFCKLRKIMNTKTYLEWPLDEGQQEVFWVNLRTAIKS
Mitogen-activated protein kinase 14 (Homo sapiens), sequence (Q16539 whole entry, the tested form may be a part): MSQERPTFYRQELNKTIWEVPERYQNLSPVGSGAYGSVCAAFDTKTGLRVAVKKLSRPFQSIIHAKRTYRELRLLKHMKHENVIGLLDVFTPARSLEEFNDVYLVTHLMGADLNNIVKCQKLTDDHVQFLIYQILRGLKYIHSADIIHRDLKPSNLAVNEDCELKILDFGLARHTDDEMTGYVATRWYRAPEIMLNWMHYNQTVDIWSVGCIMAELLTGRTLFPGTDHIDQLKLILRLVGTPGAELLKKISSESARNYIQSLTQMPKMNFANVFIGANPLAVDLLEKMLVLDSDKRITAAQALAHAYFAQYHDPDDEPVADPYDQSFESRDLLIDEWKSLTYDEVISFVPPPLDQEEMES
Mitogen-activated protein kinase 11 (Homo sapiens), sequence (Q15759 whole entry, the tested form may be a part): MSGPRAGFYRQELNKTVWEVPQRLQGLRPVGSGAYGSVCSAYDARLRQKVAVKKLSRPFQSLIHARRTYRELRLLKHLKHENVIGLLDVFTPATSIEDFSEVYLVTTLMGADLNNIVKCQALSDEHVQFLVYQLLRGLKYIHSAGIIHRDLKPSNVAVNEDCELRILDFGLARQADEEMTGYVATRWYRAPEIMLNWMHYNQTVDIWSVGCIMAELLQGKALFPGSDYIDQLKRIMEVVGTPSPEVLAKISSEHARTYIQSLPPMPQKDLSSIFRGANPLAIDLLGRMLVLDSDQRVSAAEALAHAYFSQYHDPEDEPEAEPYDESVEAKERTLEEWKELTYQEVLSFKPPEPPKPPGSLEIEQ
Mitogen-activated protein kinase 3 (Homo sapiens), sequence (P27361 whole entry, the tested form may be a part): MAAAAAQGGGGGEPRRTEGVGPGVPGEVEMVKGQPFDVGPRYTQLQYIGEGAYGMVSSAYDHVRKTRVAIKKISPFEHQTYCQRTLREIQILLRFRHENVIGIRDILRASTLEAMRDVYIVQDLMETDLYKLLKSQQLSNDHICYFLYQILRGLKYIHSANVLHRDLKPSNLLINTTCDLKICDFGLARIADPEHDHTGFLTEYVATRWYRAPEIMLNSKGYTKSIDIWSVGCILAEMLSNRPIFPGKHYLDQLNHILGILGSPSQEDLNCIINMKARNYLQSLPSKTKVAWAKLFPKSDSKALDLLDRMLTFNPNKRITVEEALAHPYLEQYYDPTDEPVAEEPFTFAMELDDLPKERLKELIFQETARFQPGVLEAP
Toll-like receptor 4 (Homo sapiens), sequence (O00206 whole entry): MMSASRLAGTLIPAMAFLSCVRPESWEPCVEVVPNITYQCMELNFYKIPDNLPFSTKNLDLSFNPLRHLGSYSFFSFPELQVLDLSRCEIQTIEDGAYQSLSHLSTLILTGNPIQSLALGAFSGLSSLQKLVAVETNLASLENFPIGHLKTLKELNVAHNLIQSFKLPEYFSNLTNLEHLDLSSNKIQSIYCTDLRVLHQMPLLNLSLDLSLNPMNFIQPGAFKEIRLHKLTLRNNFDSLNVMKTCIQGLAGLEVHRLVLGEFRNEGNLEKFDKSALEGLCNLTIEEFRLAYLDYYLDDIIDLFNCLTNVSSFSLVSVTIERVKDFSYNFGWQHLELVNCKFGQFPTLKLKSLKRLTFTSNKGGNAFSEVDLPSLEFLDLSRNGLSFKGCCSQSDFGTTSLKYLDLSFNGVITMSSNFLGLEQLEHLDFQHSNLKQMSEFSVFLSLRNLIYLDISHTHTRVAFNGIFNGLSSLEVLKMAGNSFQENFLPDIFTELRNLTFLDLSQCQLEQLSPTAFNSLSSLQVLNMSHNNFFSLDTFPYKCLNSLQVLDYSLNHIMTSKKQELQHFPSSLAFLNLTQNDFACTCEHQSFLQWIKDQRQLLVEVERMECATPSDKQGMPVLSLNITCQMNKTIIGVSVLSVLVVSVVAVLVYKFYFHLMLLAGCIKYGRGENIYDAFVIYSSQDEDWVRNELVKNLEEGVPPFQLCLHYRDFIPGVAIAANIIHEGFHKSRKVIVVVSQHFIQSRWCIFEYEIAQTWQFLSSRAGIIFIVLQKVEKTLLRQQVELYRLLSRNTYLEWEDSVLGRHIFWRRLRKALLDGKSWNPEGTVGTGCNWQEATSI
Mitogen-activated protein kinase 9 (Homo sapiens), sequence (P45984 whole entry, looked up, the tested form may be a part): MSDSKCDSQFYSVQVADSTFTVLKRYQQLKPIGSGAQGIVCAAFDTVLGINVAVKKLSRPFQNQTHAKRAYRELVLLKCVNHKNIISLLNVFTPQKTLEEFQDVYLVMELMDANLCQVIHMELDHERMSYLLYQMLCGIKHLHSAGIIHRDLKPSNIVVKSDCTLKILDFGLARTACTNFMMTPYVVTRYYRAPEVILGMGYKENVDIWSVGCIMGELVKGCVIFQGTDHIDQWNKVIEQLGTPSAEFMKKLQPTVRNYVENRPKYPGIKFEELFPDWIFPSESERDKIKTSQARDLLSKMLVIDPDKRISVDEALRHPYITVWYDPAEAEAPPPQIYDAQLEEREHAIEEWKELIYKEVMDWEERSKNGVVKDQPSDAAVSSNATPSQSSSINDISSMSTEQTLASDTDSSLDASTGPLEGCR

With `COc1ccc(CCNC(=O)/C=C/c2ccc(OC)cc2OC)cc1` the Activity [1] was “Non-toxic”.

With `O=C(/C=C/c1cccc(Cl)c1Cl)NCCc1ccccc1` the Activity [1] was “Non-toxic”.

With `COc1cc(/C=C/C(=O)NCCCc2ccccc2)ccc1O` the Activity [1] was “Non-toxic”.

For `COc1ccc(/C=C/C(=O)NCCc2ccccc2)c(OC)c1`, the Activity [1] was “Non-toxic”.

In the case of `COc1cc(/C=C/C(=O)NCCc2ccccc2)ccc1O`, the Activity [1] was “Non-toxic”.

In the case of `COc1ccc(CCNC(=O)/C=C/c2ccc(O)c(OC)c2)cc1`, the Activity [1] was “Non-toxic”.

For `O=C(/C=C/c1cccc(Cl)c1Cl)N1CCOCC1`, the Activity [1] was “Non-toxic”.

With `COc1ccc(/C=C/C(=O)NCc2ccccc2)c(OC)c1` the Activity [1] was “Non-toxic”.

For `COc1ccc(/C=C/C(=O)NCc2ccc(OC)c(OC)c2)c(OC)c1`, the Activity [1] was “Non-toxic”.

In the case of `CCCCNC(=O)/C=C/c1ccc(O)c(OC)c1`, the Activity [1] was “Non-toxic”.

For `O=C(/C=C/c1cccc(Cl)c1Cl)NCc1ccc(F)cc1`, the Activity [1] was “Non-toxic”.

With `CCCCNC(=O)/C=C/c1cccc(Cl)c1Cl` the Activity [1] was “Non-toxic”.

In the case of `CCCCNC(=O)/C=C/c1ccc(OC)cc1OC`, the Activity [1] was “Non-toxic”.

For `COc1ccc(/C=C/C(=O)NCCNC(=O)/C=C/c2ccc(OC)cc2OC)c(OC)c1`, the inhibition [2] was “inactive”, the inhibition (Mus musculus [3]) was “Active” and the Cmax [4] was 40 ng/mL. The Cmax [5] was 550 ng/mL, the Activity [6] was “inactive” and the inhibition (Mus musculus [7]) was “Active”. For the same compound, the inhibition (Mus musculus [8]) was “Active”, the inhibition (Mus musculus [9]) was “Active” and the inhibition (Mus musculus [10]) was “Active”. The inhibition [11] was “inactive”, the inhibition [12] was “inactive” and the inhibition (Mus musculus [13]) was “Active”. For the same compound, the Cmax [14] was 270 ng/mL, the inhibition (Mus musculus [15]) was “Active” and the Cmax [16] was 40 ng/mL. The inhibition [17] was “inactive”, the inhibition [18] was “inactive” and the inhibition (Mus musculus [19]) was “Active”. For the same compound, the inhibition (Mus musculus [20]) was “Active”, the inhibition (Mus musculus [21]) was “Active” and the inhibition (Mus musculus [22]) was “Active”. The Activity [1] was “Non-toxic”, the inhibition (Mus musculus [23]) was “Active” and the survival at 10 mg/kg (Mus musculus [24]) was 100%. The inhibition [25] was “inactive”, the inhibition [26] was “inactive” and the inhibition (Mus musculus [27]) was “Active”. The inhibition (Mus musculus [28]) was “Active”.

In the case of `COc1cc(/C=C/C(=O)NCCNC(=O)/C=C/c2ccc(O)c(OC)c2)ccc1O`, the Activity [1] was “Non-toxic”.

For `O=C(/C=C/c1cccc(Cl)c1Cl)NCc1ccc(Cl)cc1`, the Activity [1] was “Non-toxic”.

For `COc1ccc(CNC(=O)/C=C/c2cccc(Cl)c2Cl)cc1OC`, the Activity [29] was “inactive” and the Activity [1] was “Non-toxic”.

With `COc1ccc(/C=C/C(=O)NCCCc2ccccc2)c(OC)c1` the Activity [1] was “Non-toxic”.
